The record followed here is article PMC5917010, “Structural basis for GPR40 allosteric agonism and incretin stimulation” (Nature Communications, 2018).

Test [1] deals with GPR40 knock-out (KO) mice. Kind of test: IPGTT in GPR40 knock-out mice. Format: in vivo, mouse. The note with it: high dose of compound 1. As to the method:
Nine to ten week old male ICR mice (Envigo) and GPR40 KO mice (Taconic) were used. The day before an IPGTT (~1600), animals were fasted in clean cages. The following morning (~0800), animals were randomized on fasting glucose and body weight (N = 6 per group). Mice were orally administered a test article or vehicle 60 min prior to an intraperitoneal (IP) injection of glucose (2g/kg). Blood glucose levels were determined by a glucometer from tail bleeds taken at 0, 15, 30, 60, and 120 min after the glucose challenge. An average of two readings were reported at each time point. Also, blood samples were collected into serum tubes at 0, 3, 6, and 15 min post glucose injection for insulin measurement. Serum tubes were centrifuged at 3000g for 5 min and serum transferred into 96-well plates for insulin analysis by a Mesoscale rat/mouse insulin assay.

For a further test, the system named is GPR40 KO mice. The test is described as follows: OGTT in GPR40 KO mice. Format: in vivo, mouse. The note with it: high dose of compound 1. As to the method:
Eight to thirteen week old male C57BL/6 or KO mice were used. The day before the study, at 1600 hours, animals were transferred into clean cages and food was removed. The following morning (~0800 hours), mice were randomized by block randomization to treatment groups (N = 5–7 per group) so each group had similar mean and standard deviation of body weight and blood glucose. […] Animals were dosed with vehicle (0.5% MC/0.25% Tween-80) or the test article by oral gavage. Group allocations were not blinded from the experimenters who collected the data. After 60 min compound treatment animals were then given an oral gavage of glucose (2 g/kg). At 0, 15, 30, 60, and 120 min post oral glucose, two glucose readings via glucometers were obtained. The average of two glucose readings was reported at each time point. Data were expressed as mean±standard error (s.e.m.). Blood glucose values were analyzed using ANOVA with repeated measures. Cook’s distance was also calculated from linear regression. All animals were included in the analysis with their individual averaged Cook’s distance < 1. Dunnett’s comparison was performed at each time point by R program. Significance is denoted at p < 0.05.

A further test deals with T1, human GPR40 (A2 site) (Homo sapiens, UniProt O14842).
T1 construct: full length recombinant human GPR40 (GPR40) cDNA; expressed in transfected cells; host or cells: HEK 293, stably transfected; crude cell surface membranes
T1 sequence (O14842 whole entry): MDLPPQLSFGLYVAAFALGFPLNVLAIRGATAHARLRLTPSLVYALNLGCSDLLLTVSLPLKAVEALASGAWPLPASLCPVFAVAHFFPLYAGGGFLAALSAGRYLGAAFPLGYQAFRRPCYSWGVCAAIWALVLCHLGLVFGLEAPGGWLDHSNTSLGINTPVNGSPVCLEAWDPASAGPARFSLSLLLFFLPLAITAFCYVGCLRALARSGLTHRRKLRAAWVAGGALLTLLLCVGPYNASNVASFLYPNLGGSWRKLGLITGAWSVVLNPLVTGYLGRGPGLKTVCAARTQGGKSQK
The test is described as follows: A2 site radioligand binding with [3H]-AM-1638. The note with it: Supplementary Table 1; read-out: Human GPR40 Binding to A2 Ki. As to the method: (§1) Crude cell surface membranes were prepared from human embryonic kidney 293 (HEK 293) cells stably transfected (for the wild type) or transiently transfected (for the mutants and corresponding wild type) with full length recombinant human GPR40 (GPR40) cDNA, using differential centrifugation methods.
A2 Site Binding. 10 µL of compound diluted in 100% DMSO and 90 µL of Assay Buffer (50 mM Tris-HCl, pH 7.5, 10 mM CaCl2, 10 mM MgCl2, 0.1% w/v Bacitracin, 2.5% w/v dextran charcoal-treated FBS) were added to a deep 96-well polypropylene assay plate (Beckman Coulter). Two hundred μl of [^3H]-AM-1638 (84 Ci/mmol, Quotient Bioresearch Radiochemicals, Ltd.; 0.5 nM final concentration) and 200 µL of GPR40 membranes (5 µg/well), both diluted in Assay Buffer, were added to the assay plate, followed by a 1 min shake and a 1 h incubation at room temperature (22 °C).
(§2) Assays were terminated by filtration through GF/C glass fiber filtermats (Perkin Elmer) presoaked in 50 mM Tris–HCl, pH 7.5, using a Mach III cell harvester (TomTec). Filtermats were washed two times with 5 mL of ice-cold 50 mM Tris–HCl, pH 7.5 buffer, dried 1 h in a convection oven at 60 °C and embedded with Meltilex A solid scintillant (Perkin Elmer). Radioactivity was determined as counts per min (cpm) using a Trilux Microbeta plate scintillation counter (Perkin Elmer).

A further test has as its target T2, human GPR40 (A1 site) (Homo sapiens, UniProt O14842).
T2 construct: full length recombinant human GPR40 (GPR40) cDNA; expressed in transfected cells; host or cells: HEK 293, stably transfected; crude cell surface membranes
Kind of test: A1 site radioligand binding with [3H]-TAK-875. The note with it: Supplementary Table 1. As to the method: as §1
A1 Site Binding. 10 µL of compound diluted in 100% DMSO and 90 µL of Assay Buffer (50 mM Tris-HCl, pH 7.5, 5 mM CaCl2, 5 mM MgCl2, 0.1% w/v fatty acid-free BSA) were added to a deep 96-well polypropylene assay plate (Beckman Coulter).
as §2

Test [2] addresses T3, human GPR40 (Homo sapiens, UniProt O14842).
T3 construct: HEK293 cells stably overexpressing full length human GPR40; expressed in transfected cells
The test is described as follows: Human GPR40 Calcium (Supplementary Table 1). Format: cell-based.

Test [3] concerns the target T3, human GPR40. Kind of test: Human GPR40 b-arrestin. Format: cell-based.
For a further test, the target named is Mouse GPR40 (Mus musculus, UniProt Q76JU9). The test is described as follows: Mouse GPR40 b-arrestin. Format: cell-based.
Chain of Mouse GPR40 (Q76JU9 whole entry): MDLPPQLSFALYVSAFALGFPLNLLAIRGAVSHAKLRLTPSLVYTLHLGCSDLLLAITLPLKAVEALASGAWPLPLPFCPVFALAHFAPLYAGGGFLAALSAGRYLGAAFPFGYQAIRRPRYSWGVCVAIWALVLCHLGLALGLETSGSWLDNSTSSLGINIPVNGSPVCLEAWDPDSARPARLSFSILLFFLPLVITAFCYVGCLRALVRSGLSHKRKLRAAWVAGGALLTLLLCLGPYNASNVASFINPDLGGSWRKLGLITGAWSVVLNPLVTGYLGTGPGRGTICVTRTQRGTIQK
A further test has as its target Rat GPR40 (Rattus norvegicus, UniProt Q8K3T4). Kind of test: Rat GPR40 b-arrestin. Format: cell-based.
For test [4], the target named is T3, human GPR40. Kind of test: Human GPR40 IP1. Format: cell-based.
Test [5] addresses T4, Human GPR120 (Homo sapiens, UniProt Q5NUL3).
T4 sequence (Q5NUL3 1-361): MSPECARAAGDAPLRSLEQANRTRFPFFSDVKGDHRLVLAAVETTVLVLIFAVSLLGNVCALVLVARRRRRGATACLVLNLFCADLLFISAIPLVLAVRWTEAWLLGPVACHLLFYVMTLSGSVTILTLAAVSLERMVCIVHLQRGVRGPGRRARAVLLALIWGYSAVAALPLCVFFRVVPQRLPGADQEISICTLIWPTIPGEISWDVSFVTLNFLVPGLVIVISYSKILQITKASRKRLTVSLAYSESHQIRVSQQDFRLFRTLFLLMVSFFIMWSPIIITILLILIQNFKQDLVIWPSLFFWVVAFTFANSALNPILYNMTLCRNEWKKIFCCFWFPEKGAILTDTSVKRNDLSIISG
The test is described as follows: Human GPR120 Calcium (FLIPR). Format: cell-based. The note with it: Supplementary Table 1.

Another test deals with T5, human PPARalpha (Homo sapiens, UniProt Q07869).
T5 sequence (Q07869 1-468): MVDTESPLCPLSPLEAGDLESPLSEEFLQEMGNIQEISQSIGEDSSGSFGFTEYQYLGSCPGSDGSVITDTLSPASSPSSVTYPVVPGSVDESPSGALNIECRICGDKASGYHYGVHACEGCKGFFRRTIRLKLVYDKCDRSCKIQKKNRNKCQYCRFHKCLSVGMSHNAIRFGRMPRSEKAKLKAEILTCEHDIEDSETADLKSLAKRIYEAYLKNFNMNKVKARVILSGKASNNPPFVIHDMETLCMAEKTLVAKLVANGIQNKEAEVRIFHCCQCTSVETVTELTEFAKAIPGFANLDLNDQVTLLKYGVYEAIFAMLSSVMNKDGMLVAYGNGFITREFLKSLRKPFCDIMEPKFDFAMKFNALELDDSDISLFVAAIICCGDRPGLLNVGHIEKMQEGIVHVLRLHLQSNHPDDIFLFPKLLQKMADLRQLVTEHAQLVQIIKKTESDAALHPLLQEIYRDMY
The test is described as follows: human PPARalpha binding. The note with it: Supplementary Table 1.

The target in a further test is T6, human PPARdelta (Homo sapiens, UniProt Q03181).
T6 sequence (Q03181 1-441): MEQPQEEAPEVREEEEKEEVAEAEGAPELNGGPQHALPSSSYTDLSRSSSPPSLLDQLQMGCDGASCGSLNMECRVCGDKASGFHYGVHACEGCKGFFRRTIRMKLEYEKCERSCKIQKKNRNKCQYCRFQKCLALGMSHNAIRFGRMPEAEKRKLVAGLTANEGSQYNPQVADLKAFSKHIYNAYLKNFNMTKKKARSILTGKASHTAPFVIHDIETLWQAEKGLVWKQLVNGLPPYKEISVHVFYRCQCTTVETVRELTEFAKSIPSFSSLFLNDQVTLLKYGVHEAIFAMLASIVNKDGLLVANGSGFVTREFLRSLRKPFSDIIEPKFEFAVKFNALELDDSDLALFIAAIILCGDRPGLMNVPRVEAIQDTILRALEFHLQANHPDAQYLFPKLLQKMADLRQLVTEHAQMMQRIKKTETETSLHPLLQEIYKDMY
The test is described as follows: human PPARdelta binding. The note with it: Supplementary Table 1.

Another test concerns the target T7, human PPARgama (Homo sapiens, UniProt P37231).
T7 sequence (P37231 1-505): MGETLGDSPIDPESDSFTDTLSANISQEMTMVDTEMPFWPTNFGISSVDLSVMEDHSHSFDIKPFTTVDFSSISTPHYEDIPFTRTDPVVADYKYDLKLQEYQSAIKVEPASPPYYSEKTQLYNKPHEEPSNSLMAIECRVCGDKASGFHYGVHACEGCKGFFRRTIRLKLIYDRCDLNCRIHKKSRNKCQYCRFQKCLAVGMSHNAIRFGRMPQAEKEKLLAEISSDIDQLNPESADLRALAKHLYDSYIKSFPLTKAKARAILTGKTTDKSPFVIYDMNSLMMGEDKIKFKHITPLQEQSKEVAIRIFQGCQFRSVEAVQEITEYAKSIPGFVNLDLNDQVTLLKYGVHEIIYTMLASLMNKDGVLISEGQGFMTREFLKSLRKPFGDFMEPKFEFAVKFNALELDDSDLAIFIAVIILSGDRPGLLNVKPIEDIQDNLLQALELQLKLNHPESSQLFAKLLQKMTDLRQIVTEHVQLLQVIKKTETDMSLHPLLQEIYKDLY
The test is described as follows: human PPARgamma binding. The note with it: Supplementary Table 1.

Test [6] deals with T4, Human GPR120. The test is described as follows: Human GPR120 binding. The note with it: Supplementary Table 1.
The target of test [7] is T4, Human GPR120. The test is described as follows: Human GPR120 b-arrestin. The note with it: Supplementary Table 1. Format: cell-based.
A further test has as its target T8, Mouse GPR120 (Mus musculus, UniProt Q7TMA4).
T8 sequence (Q7TMA4 1-361): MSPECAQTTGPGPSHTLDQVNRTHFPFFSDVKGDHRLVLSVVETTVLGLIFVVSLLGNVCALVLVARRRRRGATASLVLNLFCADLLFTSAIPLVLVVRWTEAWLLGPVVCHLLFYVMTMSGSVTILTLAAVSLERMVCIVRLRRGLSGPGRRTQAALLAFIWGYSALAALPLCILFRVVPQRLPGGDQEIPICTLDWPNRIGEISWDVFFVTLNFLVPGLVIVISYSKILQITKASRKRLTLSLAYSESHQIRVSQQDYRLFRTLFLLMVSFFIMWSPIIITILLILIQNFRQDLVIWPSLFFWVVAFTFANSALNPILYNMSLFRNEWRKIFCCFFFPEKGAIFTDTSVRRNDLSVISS
Kind of test: Mouse GPR120 b-arrestin. Format: cell-based. The note with it: Supplementary Table 1.

T3 sequence (O14842 whole entry): as the sequence (O14842 whole entry) above
Chain of Rat GPR40 (Q8K3T4 whole entry): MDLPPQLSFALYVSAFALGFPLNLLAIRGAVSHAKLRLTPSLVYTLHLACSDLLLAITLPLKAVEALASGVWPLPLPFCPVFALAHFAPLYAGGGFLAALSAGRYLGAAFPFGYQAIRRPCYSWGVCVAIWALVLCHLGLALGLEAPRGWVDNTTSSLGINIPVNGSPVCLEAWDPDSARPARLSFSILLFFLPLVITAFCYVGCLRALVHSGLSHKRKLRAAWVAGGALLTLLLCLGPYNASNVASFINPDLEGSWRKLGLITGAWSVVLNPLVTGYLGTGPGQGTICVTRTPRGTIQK
T2 sequence (O14842 whole entry): as the sequence (O14842 whole entry) above

With semaglutide [reference compound], in [1], the “glucose lowering in IPGTT, GPR40 KO” value is “can be triggered” and the “insulin secretion in IPGTT, GPR40 KO” value was “can be triggered”.
For `N[C@@H](CC(=O)N1CCn2c(nnc2C(F)(F)F)C1)Cc1cc(F)c(F)cc1F` [sitagliptin, reference compound], the “blood glucose in OGTT, GPR40 KO” value in the test on GPR40 KO mice was “respond to glucose lowering”.
Take `COc1ccc(F)c(-c2ccc(COc3cccc([C@@H](CC(=O)O)C4CC4)c3)cc2C2=CCCC2(C)C)c1` [AM-1638]: the Ki on human GPR40 (A2 site) is 1.4 nM; at human GPR40 (A1 site), greater than 6910 nM; at human PPARalpha, 3170 nM; at human PPARgama, greater than 10000 nM. Also, the EC50 is 1.7 nM on human GPR40 [2]; 16 nM on human GPR40 [3]; 22.7 nM at Mouse GPR40; 105 nM on Rat GPR40; 0.25 nM at human GPR40 [4]; 2870 nM on Human GPR120 [5]. Also, the Emax worked out at 98% at human GPR40 [2]; 153% at human GPR40 [3]; 112% on Mouse GPR40; 113% at Rat GPR40; 197% on human GPR40 [4]; 63% at Human GPR120 [5]. The molecule also yielded an IC50 on human PPARdelta greater than 10000 nM.
As to `CC#C[C@@H](CC(=O)O)c1ccc(OCc2ccc(CN3CCC4(C=Cc5ccccc54)CC3)cc2)cc1` [LY2881835], the Ki on human GPR40 (A2 site) is greater than 3720 nM; at human GPR40 (A1 site) it was 4.7 nM; on Human GPR120 [6], greater than 100000 nM; at human PPARalpha it was greater than 10000 nM; at human PPARgama, greater than 10000 nM. The EC50 was 9.1 nM on human GPR40 [2]; 8.7 nM on human GPR40 [3]; 0.8 nM on Mouse GPR40; 2 nM on Rat GPR40; 1.24 nM at human GPR40 [4]; greater than 50000 nM on Human GPR120 [5]. The results for the EC50 at Human GPR120 [7] and at Mouse GPR120 were greater than 100000 nM and greater than 50000 nM, respectively. Moreover, the maximum response (Emax) was determined as 62% at human GPR40 [2]; 137% on human GPR40 [3]; 133% on Mouse GPR40; 124% at Rat GPR40; 162% at human GPR40 [4]. Further, at human PPARdelta, the IC50 was greater than 10000 nM.

What is called Ki is the equilibrium dissociation constant of an inhibitor or competing ligand from its target. By EC50 is commonly meant the concentration needed to bring the measured effect to its halfway point. One may read the Emax as the greatest response seen or fitted, relative to the assay's reference. In general, IC50 refers to the concentration needed to halve the response being measured.
